# Laboratory results as given in DBAASP.
# Legend:
# Experiment in all cases: ≥ marks a high value that may be exact or a test limit, other limits are often not marked, values filed in µg/mL are converted to µM
# [1] = system: Candida albicans ATCC 14053
# [2] = system: Enterococcus faecalis ATCC 29212
# [3] = system: Escherichia coli ATCC 25922
# [4] = system: Klebsiella pneumoniae ATCC 13883
# [5] = system: Pseudomonas aeruginosa ATCC 27853
# [6] = system: Staphylococcus aureus ATCC 29213
# [7] = system: Bacillus subtilis KCTC 3068
# [8] = system: Escherichia coli JM109
# [9] = system: Escherichia coli KCTC 1682
# [10] = system: Pseudomonas aeruginosa KCTC 1637
# [11] = system: Salmonella typhimurium KCTC 1926
# [12] = system: Staphylococcus aureus KCTC 1621
# [13] = system: Staphylococcus epidermidis KCTC 1917
# [14] = system: Cronobacter muytjensii ATCC 51329
# [15] = system: Cronobacter sakazakii ATCC BAA-894
# [16] = system: Cronobacter sakazakii DPC 6440
# [17] = system: Cronobacter sakazakii DSM 4485
# [18] = system: Escherichia coli NCIMB 11843
# [19] = system: Klebsiella pneumoniae NCIMB 13218
# [20] = system: Pseudomonas fluorescens NCIMB 9046
# [21] = system: Salmonella enterica subsp. enterica serovar Typhimurium LT2
# [22] = system: Staphylococcus aureus NCTC 8325-4
# [23] = system: Staphylococcus aureus Newman
# [24] = system: Staphylococcus aureus RF122
# [25] = system: Staphylococcus aureus RN4220
# [26] = system: Staphylococcus aureus SA113
# [27] = system: Escherichia coli ATCC 11219
# [28] = system: Klebsiella pneumoniae ATCC 10031
# [29] = system: Pseudomonas aeruginosa ATCC 13388
# [30] = system: Salmonella enterica subsp. enterica serovar Typhimurium ATCC 14028
# [31] = system: Staphylococcus aureus ATCC 6538
# [32] = system: Bacillus cereus AS1.126
# [33] = system: Enterobacter cloacae CGMCC 1.58
# [34] = system: Enterococcus faecalis CGMCC 1.595
# [35] = system: Enterococcus faecium CGMCC 1.2334
# [36] = system: Escherichia coli AS1.349
# [37] = system: Klebsiella aerogenes CGMCC 1.876
# [38] = system: Klebsiella pneumoniae subsp. pneumoniae CGMCC 1.176
# [39] = system: Lactococcus lactis AS1.1690
# [40] = system: Pseudomonas aeruginosa CGMCC 1.860
# [41] = system: Staphylococcus aureus AS1.72
smiles,measurement,setting,value
CC[C@H](C)[C@H](NC(=O)[C@H](CCCCN)NC(=O)[C@H](CO)NC(=O)[C@H](C)NC(=O)[C@H](Cc1c[nH]c2ccccc12)NC(=O)CN)C(=O)NCC(=O)N[C@@H](CCC(N)=O)C(=O)N[C@H](C(=O)N[C@@H](CC(C)C)C(=O)NCC(=O)N[C@@H](CCCCN)C(=O)N[C@H](C(=O)N[C@@H](C)C(=O)N[C@@H](CCCCN)C(=O)N[C@H](C(=O)NCC(=O)N[C@@H](CC(C)C)C(=O)N[C@@H](CCCCN)C(=O)N[C@@H](CCC(=O)O)C(=O)N[C@@H](CC(C)C)C(=O)N[C@H](C(=O)N[C@@H](CCC(N)=O)C(=O)N1CCC[C@H]1C(=O)N[C@@H](CCCCN)C(N)=O)[C@@H](C)CC)C(C)C)[C@@H](C)CC)[C@@H](C)O [GWASKIGQTLGKIAKVGLKELIQPK],MIC,[1],≥ 133 µM
same,MIC,[2],133 µM
same,MIC,[3],8.36 µM
same,MIC,[4],≥ 33 µM
same,MIC,[5],66.4 µM
same,MIC,[6],133 µM
CC[C@H](C)[C@H](N)C(=O)N[C@@H](CC(C)C)C(=O)N1CCC[C@H]1C(=O)N[C@@H](Cc1c[nH]c2ccccc12)C(=O)N[C@@H](CCCCN)C(=O)N[C@@H](Cc1c[nH]c2ccccc12)C(=O)N[C@@H](CCCCN)C(=O)N[C@@H](Cc1c[nH]c2ccccc12)C(=O)N[C@@H](Cc1c[nH]c2ccccc12)C(=O)N1CCC[C@H]1C(=O)N[C@@H](Cc1c[nH]c2ccccc12)C(=O)N[C@@H](CCCN=C(N)N)C(=O)N[C@@H](CCCN=C(N)N)C(N)=O [ILPWKWKWWPWRR],MIC,[7],2.58 µM
same,MIC,[8],1 µM
same,MIC,[9],5.16 µM
same,MIC,[10],10.3 µM
same,MIC,[11],5.16 µM
same,MIC,[12],2.58 µM
same,MIC,[13],5.16 µM
CC(C)C[C@H](NC(=O)[C@@H](N)C(C)C)C(=O)N[C@@H](CC(N)=O)C(=O)N[C@@H](CCC(=O)O)C(=O)N[C@@H](CC(N)=O)C(=O)N[C@@H](C)C(=O)N[C@@H](C)C(=O)N[C@@H](CCCN=C(N)N)C(=O)O [VLNENAAR],MIC,[14],≥ 1250 µM
same,MIC,[15],≥ 1250 µM
same,MIC,[16],≥ 1250 µM
same,MIC,[17],≥ 625 µM
same,MIC,[18],≥ 2500 µM
same,MIC,[19],≥ 2500 µM
same,MIC,[5],32 µM
same,MIC,[20],≥ 1250 µM
same,MIC,[21],≥ 2500 µM
same,MIC,[22],≥ 625 µM
same,MIC,[23],≥ 1250 µM
same,MIC,[24],≥ 1250 µM
same,MIC,[25],≥ 1250 µM
same,MIC,[26],≥ 1250 µM
CC[C@H](C)[C@H](NC(=O)CN)C(=O)N[C@@H](CCCCN)C(=O)N[C@@H](CC(=O)O)C(=O)N[C@H](C(=O)N[C@@H](CC(C)C)C(=O)N[C@@H](CCCCN)C(=O)N[C@@H](Cc1ccc(O)cc1)C(=O)NCC(=O)N[C@@H](CCCCN)C(=O)N1CCC[C@H]1C(=O)N[C@@H](CO)C(N)=O)[C@@H](C)CC [GIKDILKYGKPS],MIC,[27],10 µM
same,MIC,[28],10 µM
same,MIC,[29],30 µM
same,MIC,[30],5 µM
same,MIC,[31],15 µM
NC(N)=NCCC[C@H](NC(=O)[C@H](CCCN=C(N)N)NC(=O)[C@H](Cc1c[nH]c2ccccc12)NC(=O)[C@H](Cc1ccccc1)NC(=O)[C@H](CCCN=C(N)N)NC(=O)[C@H](CCCN=C(N)N)NC(=O)[C@@H](N)Cc1c[nH]c2ccccc12)C(=O)O [WRRFWRR],MIC,[32],1.56 µM
same,MIC,[33],≥ 100 µM
same,MIC,[34],25 µM
same,MIC,[35],25 µM
same,MIC,[36],25 µM
same,MIC,[37],≥ 100 µM
same,MIC,[38],≥ 100 µM
same,MIC,[39],12.5 µM
same,MIC,[40],12.5 µM
same,MIC,[41],≥ 50 µM
CC[C@H](C)[C@H](NC(=O)CN)C(=O)N[C@@H](C)C(=O)N[C@@H](CC(=O)O)C(=O)N[C@H](C(=O)N[C@@H](CC(C)C)C(=O)N[C@@H](CCCCN)C(=O)N[C@@H](Cc1ccc(O)cc1)C(=O)NCC(=O)N[C@@H](CCCCN)C(=O)N1CCC[C@H]1C(=O)N[C@@H](CO)C(N)=O)[C@@H](C)CC [GIADILKYGKPS],MIC,[27],≥ 50 µM
same,MIC,[28],30 µM
same,MIC,[29],15 µM
same,MIC,[30],10 µM
same,MIC,[31],20 µM
CC[C@H](C)[C@H](NC(=O)CNC(C)=O)C(=O)N[C@@H](CCCN=C(N)N)C(=O)N[C@@H](CCCN=C(N)N)C(=O)N[C@H](C(=O)N[C@@H](CC(C)C)C(=O)N[C@@H](CCCCN)C(=O)N[C@@H](Cc1ccc(O)cc1)C(=O)NCC(=O)N[C@@H](CCCCN)C(=O)N[C@@H](CCCN=C(N)N)C(=O)N[C@@H](CO)C(N)=O)[C@@H](C)CC [GIRRILKYGKRS],MIC,[27],5 µM
same,MIC,[28],5 µM
same,MIC,[29],20 µM
same,MIC,[30],20 µM
same,MIC,[31],2.2 µM
CC[C@H](C)[C@H](N)C(=O)N[C@@H](CCCCN)C(=O)N[C@@H](Cc1cnc[nH]1)C(=O)N[C@@H](CCC(N)=O)C(=O)NCC(=O)N[C@@H](CC(C)C)C(=O)N1CCC[C@H]1C(=O)N[C@@H](CCC(N)=O)C(=O)N[C@@H](CCC(=O)O)C(=O)N[C@@H](CC(=O)O)C(=O)O [IKHQGLPQED],MIC,[14],≥ 2500 µM
same,MIC,[15],≥ 625 µM
same,MIC,[16],≥ 625 µM
same,MIC,[17],≥ 625 µM
same,MIC,[18],≥ 1250 µM
same,MIC,[19],≥ 1250 µM
same,MIC,[20],≥ 1250 µM
same,MIC,[21],≥ 2500 µM
same,MIC,[22],≥ 1250 µM
same,MIC,[23],≥ 1250 µM
same,MIC,[24],≥ 1250 µM
same,MIC,[25],≥ 1250 µM
same,MIC,[26],≥ 625 µM
